In patent US5116815A, “PF 1022 substance, method of treating helminthic parasitic infection and anthelmintic composition” (Meiji Seika Kaisha Ltd., priority 1989, dated 1992):
Values joined by “and” are separate entries in the source; they are usually repeats but may differ in a detail not shown here. Equal entries are not always repeated.

Assays:
Solubility = type: physicochemical
Text: (11) Solubility: Soluble in methanol, ethyl acetate, acetone, chloroform and dimethyl sulfoxide; insoluble in water;

[1] = Classification by basicity, acidity or neutrality; type: physicochemical
Ames test = type: cell-based
[2] = system: large intestinal roundworms (Ascaris suum); assay: Anthelmintic activity against swine large intestinal roundworms; type: in vivo; conditions: oral in feed; for Number of remaining worms: autopsy one week; for EPG Before administration: baseline; for EPG Upon autopsy: one week
Method: The anthelmintic effect of the PF 1022 substance in swine was evaluated by orally administering the substance to swine found to be infected with large intestinal roundworms (Ascaris suum) by scatoscopy.
The PF 1022 substance was administered either once at 5 mg/kg or 10 mg/kg, or at a daily dose of 1.25 mg/kg, 2.5 mg/kg or 5 mg/kg once daily for consecutive 2 days by admixing an amount of the substance as such equal to each dose with a small portion of the ordinary feed. After administration, the worms eliminated were counted and the feces examined for the number of roundworm eggs per gram of feces (EPG) daily. One week after commencement of administration, the animals were sacrificed and autopsied for counting the worms remaining in the intestinal tract.

[3] = system: strongyles (Strongylus spp.); assay: Anthelmintic effect on equine strongyles; type: in vivo; conditions: horse, oral 5 mg/kg Day 0 and 2.5 mg/kg Day 1
Method: The PF 1022 substance was evaluated for its anthelmintic effect in a horse found by scatoscopy to be infected with roundworms (Parascaris equorum) and strongyles (Strongylus spp.) by orally administering the substance thereto.
The PF 1022 substance was suspended in water and administered with a stomach catheter at 5 mg/kg on the first day and at 2.5 mg/kg on the second day. For both the roundworms and strongyles, parasite eggs in each gram of feces (EPG) as well as parasites eliminated were counted daily for one week following the first administration. For strongyles, the number of worms in 100 g of feces was determined.

[4] = system: hookworms (Ancylostoma caninum); assay: Anthelmintic effect on canine hookworms; type: in vivo; conditions: dog, single oral dose 5 mg/kg
Method: (§1) The PF 1022 substance was evaluated for its anthelmintic effect in dogs by orally administering it to dogs found to be infected with roundworms (Toxocara canis), hookworms (Ancylostoma caninum) and whipworms (Trichuris vulpisl), respectively, by scatoscopy.
The substance was orally administered once at the dose of 5 mg/kg to a dog infected with the roundworms or hookworms by admixing the substance with a small portion of the ordinary feed, and the worms eliminated and those remaining in the dog during 7 days following administration were counted.

[5] = system: whipworms (Trichuris vulpisl); assay: Anthelmintic effect on canine whipworms; type: in vivo; conditions: dog; for whipworms eliminated / whipworms remaining: 7 days
Method: as §1
Thus, the elimination was 100% in both cases. On the other hand, one of two dogs infected with the above-mentioned whipworms was given orally one single dose of 5 mg/kg and the other 10 mg/kg, and the worms eliminated and those remaining uneliminated during 7 days following administration were counted. […] At 10 mg/kg, 22 whipworms were eliminated while none were found remaining uneliminated. Thus, the elimination was 100%.

[6] = 2 administrations, 1.25 mg/kg/administration, 1.25 mg/kg
[7] = 2 administrations, 2.5 mg/kg/administration
[8] = 2 administrations, 5 mg/kg/administration

CC(C)C[C@H]1C(=O)O[C@H](Cc2ccccc2)C(=O)N(C)[C@@H](CC(C)C)C(=O)O[C@H](C)C(=O)N(C)[C@@H](CC(C)C)C(=O)O[C@H](Cc2ccccc2)C(=O)N(C)[C@@H](CC(C)C)C(=O)O[C@H](C)C(=O)N1C [PF 1022 substance]
Solubility (Solubility; methanol, ethyl acetate, acetone, chloroform and dimethyl sulfoxide): Soluble
Solubility (Solubility; water): insoluble
Classification by basicity, acidity or neutrality [1]: Neutral substance
Ames test result (Ames test): negative
Number of worms eliminated ([2]; 1 administration, 5 mg/kg): 12
Number of remaining worms ([2]; 1 administration, 5 mg/kg): 13
EPG Before administration ([2]; 1 administration, 5 mg/kg): 99000
EPG Upon autopsy ([2]; 1 administration, 5 mg/kg): 8000
Number of worms eliminated ([2]; 1 administration, 10 mg/kg): 7
Number of remaining worms ([2]; 1 administration, 10 mg/kg): 5
EPG Before administration ([2]; 1 administration, 10 mg/kg): 2100
EPG Upon autopsy ([2]; 1 administration, 10 mg/kg): 200
Number of worms eliminated ([2]; 2 administrations, 1.25 mg/kg/administration): 2
% Elimination [2, 6]: 18.2% and 33.3%
EPG Before administration [2, 6]: 2300 and 1800
Number of remaining worms [2, 7]: 1
EPG Before administration ([2]; 2 administrations, 2.5 mg/kg/administration, 2.5 mg/kg): 3300 and 3800
EPG Upon autopsy [2, 7]: 0
% Elimination [2, 8]: 100%
Number of worms eliminated [2, 8]: 13
Number of remaining worms [2, 8]: 0
EPG Before administration [2, 8]: 2700
EPG Upon autopsy [2, 8]: 0
EPG ([3]; Day 0): 265
Number of worms eliminated ([3]; Day 0): 0 per 100 g feces
EPG ([3]; Day 1): 82
Number of worms eliminated ([3]; Day 1): 82 per 100 g feces
EPG ([3]; Day 2): 0.6
Number of worms eliminated ([3]; Day 2): 0 per 100 g feces
EPG ([3]; Day 3): 0.4
Number of worms eliminated ([3]; Day 3): 0 per 100 g feces
EPG ([3]; Day 4): 0
Number of worms eliminated ([3]; Day 4): 0 per 100 g feces
EPG ([3]; Day 5): 0
Number of worms eliminated ([3]; Day 5): 0 per 100 g feces
EPG ([3]; Day 6): 0.2
Number of worms eliminated ([3]; Day 6): 0 per 100 g feces
Number of worms eliminated ([3]; Day 7): 0 per 100 g feces
elimination [4]: 100%
hookworms eliminated ([4]; 7 days): Twelve
hookworms remaining ([4]; 7 days): no hookworms were found remaining
percent elimination ([5]; single oral dose 5 mg/kg): 39.4%
whipworms eliminated ([5]; single oral dose 5 mg/kg): 327
whipworms remaining ([5]; single oral dose 5 mg/kg): 504
elimination ([5]; single oral dose 10 mg/kg): 100%
whipworms eliminated ([5]; single oral dose 10 mg/kg): 22
whipworms remaining ([5]; single oral dose 10 mg/kg): none
